As usually defined, the melting point is the temperature, or range, at which the solid turns liquid.

The subject of one series is Blumeria graminis f. sp. tritici; Synonym: Erysiphe graminis f. sp. tritici. The series can be described thus: Wheat Powdery Mildew (ERYSGT) disease control. Type of series: in vivo. The settings on record: 100 ppm, 1 Day Protectant. Here is the method:
Technical grades of materials were dissolved in acetone, which were then mixed with nine volumes of water containing 110 ppm Triton X-100. The fungicide solutions were applied onto wheat seedlings using an automated booth sprayer to run-off. All sprayed plants were allowed to air dry prior to further handling. All fungicides were evaluated using the aforementioned method for their activity vs. all target diseases. Wheat leaf blotch and brown rust activity were also evaluated using track spray applications, in which case the fungicides were formulated as EC formulations, containing 0.1% Trycol 5941 in the spray solutions. Wheat plants (variety Yuma) were grown from seed in a greenhouse in 50% mineral soil/50% soil-less Metro mix until the first leaf was fully emerged, with 7-10 seedlings per pot. These plants were inoculated with an aqueous spore suspension of Septoria tritici either prior to or after fungicide treatments. […] When disease symptoms were fully expressed on the 1st leaves of untreated plants, infection levels were assessed on a scale of 0 to 100 percent disease severity. Percent disease control was calculated using the ratio of disease severity on treated plants relative to untreated plants. […]
On to `COc1ccnc(C(=O)N[C@H]2CCC[C@H](Cc3ccccc3)[C@@H](OCC(C)C)[C@H](C)OC2=O)c1OCOC(=O)C(C)C` [Compound F151], for which the “Disease Control ERYSGT 1 DP” value is “A (80-100)”.

As for `COc1ccnc(C(=O)N[C@H]2CCC[C@H](Cc3ccccc3)[C@@H](OCC(C)C)[C@H](C)OC2=O)c1OCOC(C)=O` [Compound F106], the “Disease Control ERYSGT 1 DP” value is listed as “A (80-100)”.

The next series relates to Magnaporthe grisea; Anamorph: Pyricularia oryzae. The series can be described thus: whole plant or invertebrate. The settings on record: Pyricularia oryzae, topical, 24 h, read-out: Disease Control PYRIOR 1 DP. Type of series: in vivo.
On to `COc1ccnc(C(=O)N[C@H]2CCC[C@H](Cc3ccccc3)[C@@H](OCC(C)C)[C@H](C)OC2=O)c1OCOC(=O)C(C)C` [Compound F151], for which the pest or weed control at 100 ppm is 80 to 100%. Turning to `CCCO[C@@H]1[C@@H](Cc2ccc(OC)cc2)CCC[C@H](NC(=O)c2nccc(OC)c2OCOC(C)=O)C(=O)O[C@H]1C` [Compound F119], the pest or weed control at 100 ppm is 80 to 100%.

Turning to `CCOCC(=O)OCOc1c(OC)ccnc1C(=O)N[C@H]1CCC[C@H](CC2CCCCC2)[C@@H](OCC(C)C)[C@H](C)OC1=O` [Compound F175], the pest or weed control at 100 ppm was in the range of 80 to 100%. Still for that read-out and setting: with `CCOCC(=O)OCOc1c(OC)ccnc1C(=O)N[C@H]1CCC[C@H](Cc2ccccc2)[C@@H](OCC2CC2)[C@H](C)OC1=O` [Compound F173] the figure was 80 to 100%.

For the compound `COc1ccnc(C(=O)N[C@H]2CCC[C@H](Cc3ccc(F)cc3)[C@@H](OCC3CC3)[C@H](C)OC2=O)c1OC(C)=O` [Compound F67], the pest or weed control at 100 ppm was in the range of 80 to 100%. Turning to `COc1ccnc(C(=O)N[C@H]2CCC[C@H](CC3CCCCC3)[C@@H](OCC(C)C)[C@H](C)OC2=O)c1OCOC(C)=O` [Compound F113], the pest or weed control at 100 ppm lay within 80 to 100%. Same read-out and setting: the result for `CCCO[C@@H]1[C@@H](Cc2ccccc2)CCC[C@H](NC(=O)c2nccc(OC)c2OC(C)=O)C(=O)O[C@H]1C` [Compound F88] reads 80 to 100%. On the same count and under the same terms, the result for `COc1ccnc(C(=O)N[C@H]2CCC[C@H](Cc3ccccc3)[C@@H](OC3CCCC3)[C@H](C)OC2=O)c1OCOC(C)=O` [Compound F110] reads 80 to 100%; that for `CCOCC(=O)OCOc1c(OC)ccnc1C(=O)N[C@H]1CCC[C@H](CCF)[C@@H](OCC(C)C)[C@H](C)OC1=O` [Compound F181], 80 to 100%; that for `COc1ccnc(C(=O)N[C@H]2CCC[C@H](Cc3ccccc3)[C@@H](OCC3CC3)[C@H](C)OC2=O)c1OCOC(C)=O` [Compound F107], 80 to 100%. The same measure, in the same setting: the result for `CCOCC(=O)OCOc1c(OC)ccnc1C(=O)N[C@H]1CCC[C@H](Cc2ccc(F)cc2)[C@@H](OCC2CC2)[C@H](C)OC1=O` [Compound F164] reads 80 to 100%; that for `CCCO[C@@H]1[C@@H](Cc2ccccc2)CCC[C@H](NC(=O)c2nccc(OC)c2OC(=O)CCOC)C(=O)O[C@H]1C` [Compound F198], 80 to 100%. On to `CC[C@H]1CCC[C@H](NC(=O)c2nccc(OC)c2OC(C)=O)C(=O)O[C@@H](C)[C@@H]1Oc1ccccc1` [Compound F81], for which the pest or weed control at 100 ppm lay in the range of 80 to 100%. Still for that read-out and setting: with `COc1ccnc(C(=O)N[C@H]2CCC[C@H](CC(F)F)[C@@H](Oc3ccccc3)[C@H](C)OC2=O)c1OCOC(C)=O` [Compound F138] the figure was 80 to 100%; with `COc1ccnc(C(=O)N[C@H]2CCC[C@H](CCF)[C@@H](OCC(C)C)[C@H](C)OC2=O)c1OCOC(C)=O` [Compound F128, ((2-(((3S,7R,8R,9S)-7-(2-fluoroethyl)-8-isobutoxy-9-methyl-2-oxooxonan-3-yl)carbamoyl)-4-methoxypyridin-3-yl)oxy)methyl acetate], 80 to 100%. With `COc1ccnc(C(=O)N[C@H]2CCC[C@H](Cc3ccc(F)cc3)[C@@H](OCC3CC3)[C@H](C)OC2=O)c1OCOC(C)=O` [Compound F96], the pest or weed control at 100 ppm fell in the range of 80 to 100%. The same measure, in the same setting: the result for `CCCO[C@@H]1[C@@H](Cc2ccc(F)cc2)CCC[C@H](NC(=O)c2nccc(OC)c2OCOC(=O)COCC)C(=O)O[C@H]1C` [Compound F167] reads 80 to 100%.

Take `CCOCC(=O)OCOc1c(OC)ccnc1C(=O)N[C@H]1CCC[C@H](Cc2ccc(F)cc2F)[C@@H](OC(=O)c2ccco2)[C@H](C)OC1=O` [Compound F193]: the pest or weed control at 100 ppm was 80 to 100%. Still for that read-out and setting: with `CCOCC(=O)OCOc1c(OC)ccnc1C(=O)N[C@H]1CCC[C@H](CCOC)[C@@H](Oc2ccccc2)[C@H](C)OC1=O` [Compound F183] the figure was 80 to 100%.

As for `CCCO[C@@H]1[C@@H](CCC(C)C)CCC[C@H](NC(=O)c2nccc(OC)c2OCOC(C)=O)C(=O)O[C@H]1C` [Compound F92], the pest or weed control at 100 ppm was in the range of 80 to 100%. The same measure, in the same setting: the result for `COc1ccnc(C(=O)N[C@H]2CCC[C@H](Cc3ccccc3)[C@@H](OCC(C)C)[C@H](C)OC2=O)c1OCOC(C)=O` [Compound F106] reads 80 to 100%.

Test system in a further series: not given
Experiment: not given
Settings: not given
The compound `COc1ccnc(C(=O)N[C@H]2CCC[C@H](Cc3ccccc3)[C@@H](OCC(C)C)[C@H](C)OC2=O)c1OCOC(=O)C(C)C` [Compound F151] came in with a melting point of 122 to 124 °C. Same read-out and setting: with `COc1ccnc(C(=O)N[C@H]2CCC[C@H](Cc3ccc(F)cc3F)[C@@H](OCC(C)C)[C@H](C)OC2=O)c1OCOC(C)=O` [Compound F145] the figure was 48 to 53 °C; with `COc1ccnc(C(=O)N[C@H]2CCC[C@H](Cc3ccc(F)cc3F)[C@@H](OC(=O)c3ccco3)[C@H](C)OC2=O)c1OCOC(=O)C(C)C` [Compound F157], 68 to 72 °C; with `COc1ccnc(C(=O)N[C@H]2CCC[C@H](Cc3ccc(F)cc3F)[C@@H](OC(=O)c3ccco3)[C@H](C)OC2=O)c1OCOC(C)=O` [Compound F144], 76 to 80 °C.

The compound `CCOCC(=O)OCOc1c(OC)ccnc1C(=O)N[C@H]1CCC[C@H](Cc2ccc(F)cc2F)[C@@H](OC(=O)c2ccco2)[C@H](C)OC1=O` [Compound F193] displayed a melting point of 70 to 75 °C.

Values taken from patent US9265253B2, “Use of macrocyclic picolinamides as fungicides” (DOW AGROSCIENCES LLC, priority 2013, dated 2016).
